According to patent publication US8173689B2 (Novartis AG, priority 2006, dated 2012):
Like-named read-outs stand apart in the source and are kept apart here.

Legend:
[1] = target: T1, cytoplasmic domain of the human CSF-1R (Homo sapiens, UniProt P07333); experiment: In vitro kinase assay for colony stimulating factor-1 receptor (AlphaScreen); assay type: biochemical; settings: tested at about 1 μM, read-out: CSF-1R percent inhibition
T1 construct: Recombinant protein corresponding to the cytoplasmic domain of the human CSF-1R; purchased Invitrogen Corporation, Carlsbad, Calif; PV3249
T1 sequence (P07333 539-972 limits assumed): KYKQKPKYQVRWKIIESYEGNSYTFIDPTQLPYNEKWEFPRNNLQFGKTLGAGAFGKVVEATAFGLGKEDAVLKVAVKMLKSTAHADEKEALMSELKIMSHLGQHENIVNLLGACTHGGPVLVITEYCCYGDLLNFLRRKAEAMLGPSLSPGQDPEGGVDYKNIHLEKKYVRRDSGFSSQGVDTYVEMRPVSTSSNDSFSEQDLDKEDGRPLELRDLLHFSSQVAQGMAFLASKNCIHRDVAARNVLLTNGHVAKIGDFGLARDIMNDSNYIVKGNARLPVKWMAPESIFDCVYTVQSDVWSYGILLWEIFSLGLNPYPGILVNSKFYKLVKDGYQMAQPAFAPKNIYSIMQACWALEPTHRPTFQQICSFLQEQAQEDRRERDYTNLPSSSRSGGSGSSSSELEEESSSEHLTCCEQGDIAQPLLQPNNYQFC
How it was run: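 AlphaScreen read-out (PT66 anti-pTyr acceptor beads, streptavidin donor beads, overnight incubation) measured phosphorylated peptide product. The product was formed by the human CSF-1R cytoplasmic domain at 4 nM with 1 µM ATP in Mg2+/Mn2+ HEPES buffer, pH 7.5. Compound dilution series were 3-fold, starting at 25 µM.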

kinase domain of PDGFRβ = target: T2, kinase domain of PDGFRβ (Homo sapiens, UniProt P09619); experiment: Inhibition of PDGFRb kinase signaling in an in vitro biochemical assay (alphascreen); settings: tested at about 1 μM, read-out: PDGFRβ percent inhibition
T2 construct: The kinase domain of PDGFRβ was assayed in 50 mM Hepes; purchased Invitrogen P3082
T2 sequence (P09619 600-962 limits assumed): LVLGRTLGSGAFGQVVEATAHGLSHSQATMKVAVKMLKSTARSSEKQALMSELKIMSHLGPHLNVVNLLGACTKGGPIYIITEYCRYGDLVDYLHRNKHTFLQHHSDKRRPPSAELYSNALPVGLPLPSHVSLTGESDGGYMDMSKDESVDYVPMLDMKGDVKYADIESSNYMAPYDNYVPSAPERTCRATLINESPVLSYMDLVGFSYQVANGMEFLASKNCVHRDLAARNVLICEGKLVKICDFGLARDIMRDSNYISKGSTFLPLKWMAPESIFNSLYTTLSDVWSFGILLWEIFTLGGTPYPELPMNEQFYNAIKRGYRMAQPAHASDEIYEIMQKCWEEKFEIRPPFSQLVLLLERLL

[2] = tested on: MNFS60 (murine AML cells); experiment: Cell viability assay in MCSF dependent MNFS60 cells (Cell Titer Glo); assay type: cell-based; settings: Mus musculus, tested at about 1 μM; MNFS60 cells; read-out: M-NFS-60 CP percent inhibition
Description: Cell viability was assessed by Cell Titer Glo, Promega. […] Test compounds were serially diluted (3 fold) in DMSO to 500× the final concentration. […] Final concentration of MCSF is 10 ng/ml. Cells were incubated for 72 hrs at 37° C., 5% CO2. After the incubation 100 μl Cell Titer Glo is added to each well to determine viable cells. The assay was performed according to the manufacturer's instruction (Promega Corporation, Madison, Wis. USA). Each experimental condition was performed in triplicate. Raw data was imported in Abase and EC50s calculated with XL-fit data analysis software.

kinase domain of cKIT = target: T3, kinase domain of cKIT (Homo sapiens, UniProt P10721); experiment: Inhibition of cKIT kinase signaling in an in vitro biochemical assay (alphascreen); settings: tested at about 1 μM, read-out: cKit percent inhibition
T3 construct: The kinase domain of cKIT was assayed in 50 mM Hepes; purchased Upstate 14-559
T3 sequence (P10721 589-937 limits assumed): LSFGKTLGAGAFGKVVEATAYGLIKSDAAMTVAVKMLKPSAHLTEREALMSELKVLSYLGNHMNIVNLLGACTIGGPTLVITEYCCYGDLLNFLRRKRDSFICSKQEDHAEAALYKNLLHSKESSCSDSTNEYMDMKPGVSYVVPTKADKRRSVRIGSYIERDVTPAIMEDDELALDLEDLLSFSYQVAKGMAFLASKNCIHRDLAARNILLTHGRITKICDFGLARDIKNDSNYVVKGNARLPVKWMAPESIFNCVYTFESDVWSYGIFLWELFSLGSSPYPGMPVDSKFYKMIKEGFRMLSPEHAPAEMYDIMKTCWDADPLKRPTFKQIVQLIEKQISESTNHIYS

inhibition at 1 µM [1] [%] | inhibition at 1 µM (kinase domain of PDGFRβ) [%] | inhibition at 1 µM (kinase domain of cKIT) [%] | inhibition at 1 µM ([1]; compounds of Table 3) [%] | inhibition at 1 µM (kinase domain of cKIT; compounds of Table 3) [%] | inhibition at 1 µM (kinase domain of PDGFRβ; compounds of Table 3) [%] | SMILES | inhibition at 1 µM [2] [%]
99 | 6 |  |  |  |  | CNC(=O)c1cc(Oc2ccc3nc(NCc4ccccn4)oc3c2)ccn1 [Compound 40, 4-{2-[(Pyridin-2-ylmethyl)-amino]-benzooxazol-6-yloxy}-pyridine-2-carboxylic acid methylamide] | 0
99 | 96 |  |  |  |  | CNC(=O)c1cc(Oc2ccc3nc(Nc4ccccc4OC)oc3c2)ccn1 [Compound 11, 4-[2-(2-Methoxy-phenylamino)-benzooxazol-6-yloxy]-pyridin-2-carboxylic acid methylamide] | 26
98 | 100 |  |  |  |  | CNC(=O)c1cc(Oc2ccc3nc(Nc4ccccc4)oc3c2)ccn1 [Compound 26, 4-(2-Phenylamino-benzooxazol-6-yloxy)-pyridine-2-carboxylic acid methylamide] | 24
94 | 15 |  |  |  |  | CNC(=O)c1cc(Oc2ccc3nc(Nc4ccccc4-c4cnco4)oc3c2)ccn1 [Compound 46, 4-[2-(2-Oxazol-5-yl-phenylamino)-benzooxazol-6-yloxy]-pyridine-2-carboxylic acid methylamide] | 1
77 | 21 | 0 |  |  |  | CNC(=O)c1cc(Oc2ccc3nc(NCCN4CCCCC4)oc3c2)ccn1 [Compound 64, 4-[2-(2-Piperidin-1-yl-ethyl-amino)-benzooxazol-6-yloxy]-pyridine-2-carboxylic acid methylamide] | 
54 | 0 | 16 |  |  |  | c1cc(Oc2ccc3nc(NCC4CCCCC4)oc3c2)cc(-c2nnco2)n1 [Compound 81, Cyclohexylmethyl-[6-(2-[1,3,4]oxadiazol-2-yl-pyridin-4-yloxy)-benzooxazol-2-yl]-amine] | 
 |  |  | 71 | 8 | 2 | CNC(=O)c1cc(Oc2ccc3nc(N[C@H]4CC[C@@H](NC(=O)[C@@H]5CCCN5C)CC4)sc3c2)ccn1 [Compound 137] | 
83 | 0 | 14 |  |  |  | CNC(=O)c1cc(Oc2ccc3nc(NCC4CCCO4)oc3c2)ccn1 (stereo not shown) [Compound 102, 4-{2-[(Tetrahydro-furan-2-ylmethyl)-amino]-benzooxazol-6-yloxy}-pyridine-2-carboxylic acid methylamide] | 
 |  |  | 75 | 21 | 11 | CNC(=O)c1cc(Oc2ccc3nc(N[C@H]4CC[C@@H](NC(=O)c5ccccc5)CC4)sc3c2)ccn1 [Compound 135] | 
60 | 14 | 8 |  |  |  | CNC(=O)c1cc(Oc2ccc3nc(NC4CCN(Cc5ccccc5)CC4)oc3c2)ccn1 [Compound 103, 4-[2-(1-Benzyl-piperidin-4-ylamino)-benzooxazol-6-yloxy]-pyridine-2-carboxylic acid methylamide] | 
 |  |  | 87 | 1 | 0 | CNC(=O)c1cc(Oc2ccc3nc(NC4CCCC(N)C4)sc3c2)ccn1 (stereo not shown) [Example 294, 4-(2-(3-aminocyclohexylamino)benzo[d]thiazol-6-yloxy)-N-methylpicolinamide] | 
26 | 0 | 7 |  |  |  | CNC(=O)c1cc(Oc2ccc3nc(NC(C)C)oc3c2)ccn1 [Compound 98, 4-(2-Isopropylamino-benzo-oxazol-6-yloxy)-pyridine-2-carboxylic acid methylamide] | 
28 | 5 | 0 |  |  |  | CNC(=O)c1cc(Oc2ccc3nc(NCC4(C(=O)NC)CCCCC4)oc3c2)ccn1 [Compound 112, 4-{2-[(1-Methylcarbamoyl-cyclohexylmethyl)-amino]-benzooxazol-6-yloxy}-pyridine-2-carboxylic acid methylamide] | 
96 |  |  |  |  |  | CNC(=O)c1cc(Oc2ccc3nc(Nc4ccccc4N4CCOCC4)oc3c2)ccn1 [Compound 3, 4-[2-(2-Morpholin-4-yl-phenylamino)-benzooxazol-6-yloxy]-pyridin-2-carboxylic acid methylamide] | 0
52 | 2 | 23 |  |  |  | CNC(=O)c1cc(Oc2ccc3nc(N[C@H]4CCCC[C@H]4NC(=O)[C@@H]4CCCN4C)sc3c2)ccn1 [Example 313, N-methyl-4-(2-((1S,2R)-2-((S)-1-methylpyrrolidine-2-carboxamido)cyclohexylamino)benzo[d]thiazol-6-yloxy)picolinamide] | 
 |  |  | 67 | 0 | 9 | CN(C)C(=O)c1cc(Oc2ccc3nc(N[C@@H]4CCCC[C@H]4O)sc3c2)ccn1 [Compound 10] | 
55 | 7 | 0 |  |  |  | CNC(=O)c1cc(Oc2ccc3nc(N[C@H]4CCCC[C@H]4NC(=O)NC(C)C)sc3c2)ccn1 [Example 301, 4-(2-((1S,2R)-2-(3-isopropylureido)cyclohexyl-amino)benzo[d]thiazol-6-yloxy)-N-methylpicolinamide] | 
 |  |  | 86 | 3 | 0 | CNC(=O)c1cc(Oc2ccc3nc(N[C@H]4CC[C@@H](NC(=O)[C@@H]5CCCO5)CC4)sc3c2)ccn1 [Compound 136] | 
 |  |  | 48 | 4 | 0 | CNC(=O)c1cnccc1Oc1ccc2nc(N[C@@H]3CCCC[C@H]3O)sc2c1 [Example 291, 4-(2-((1R,2R)-2-hydroxycyclohexylamino)benzo[d]thiazol-6-yloxy)-N-methylnicotinamide] | 
86 | 6 | 21 |  |  |  | CNC(=O)c1cc(Oc2ccc3nc(N[C@H]4CCCN(C(=O)NC(C)C)C4)sc3c2)ccn1 [Example 333, (S)-4-(2-(1-(isopropylcarbamoyl)piper-idin-3-ylamino)benzo[d]thiazol-6-yloxy)-N-methylpicolinamide] | 
95 | 0 | 21 |  |  |  | CNC(=O)c1cc(Oc2ccc3nc(N[C@@H](C(=O)OC)c4ccccc4)oc3c2)ccn1 [Compound 53, (R)-[6-(2-Methylcarbamoyl-pyridin-4-yloxy)-benzooxazol-2-ylamino]-phenyl-acetic acid methyl ester] | 
75 | 0 | 5 |  |  |  | CNC(=O)c1cc(Oc2ccc3nc(NCC4CN(Cc5ccccc5)CCO4)oc3c2)ccn1 (stereo not shown) [Compound 120, 4-{2-[(4-Benzyl-morpholin-2-ylmethyl)-amino]-benzooxazol-6-yloxy}-pyridine-2-carboxylic acid methylamide] | 
15 | 13 | 13 |  |  |  | CNC(=O)c1cc(Oc2ccc3nc(N[C@H]4CCCC[C@H]4NC(=O)C(C)C)sc3c2)ccn1 [Example 310, 4-(2-((1S,2R)-2-isobutyramidocyclohexyl-amino)benzo[d]thiazol-6-yloxy)-N-methylpicolinamide] | 
98 | 8 | 40 |  |  |  | CNC(=O)c1cc(Oc2ccc3nc(Nc4ccc5c(c4)OCO5)oc3c2)ccn1 [Compound 95, 4-[2-(Benzo[1,3]dioxol-5-yl-amino)-benzooxazol-6-yloxy]-pyridine-2-carboxylic acid methylamide] | 
99 |  |  |  |  |  | CNC(=O)c1cc(Oc2ccc3nc(Nc4ccc(Br)cc4)oc3c2)ccn1 [Compound 1, 4-[2-(4-Bromo-phenylamino)-benzooxazol-6-yloxy]-pyridine-2-carboxylic acid methylamide] | 21
 |  |  | 81 | 0 | 6 | CNC(=O)c1cc(Oc2ccc3nc(NC[C@H](C)O)sc3c2)ccn1 [Compound 100] | 

SMILES | inhibition at 1 µM [1] [%] | inhibition at 1 µM (kinase domain of PDGFRβ) [%] | inhibition at 1 µM (kinase domain of cKIT) [%] | inhibition at 1 µM ([1]; compounds of Table 3) [%] | inhibition at 1 µM (kinase domain of cKIT; compounds of Table 3) [%] | inhibition at 1 µM (kinase domain of PDGFRβ; compounds of Table 3) [%] | inhibition at 1 µM [2] [%]
O[C@@H]1CCCC[C@H]1Nc1nc2ccc(Oc3ccnc(C4=CCNCC4)c3)cc2s1 [Compound 161] |  |  |  | 54 | 20 | 26 | 
